Results taken from patent EP4603105A1, “PHARMACEUTICAL COMPOSITION CONTAINING CYCLIC COMPOUND HAVING SELECTIVE KRAS INHIBITORY EFFECT AGAINST HRAS AND NRAS” (CHUGAI SEIYAKU KABUSHIKI KAISHA, priority 2022, dated 2024).

Columns and labels:
[1] = tested on: human gastric cancer strain SNU-1; type: cell-based
Description: (§1) A test compound was dispensed into a U-bottom 384-well plate as 40 nL serially diluted dimethyl sulfoxide solutions using a liquid handler Echo (LABCYTE). As for human gastric cancer strain SNU-1 (ATCC), a cell suspension was prepared so as to have 250 cells/40 µL in an RPMI-1640 medium (Sigma) supplemented with 10% fetal bovine serum (Sigma), a 2.5 g/L D-(+)-glucose solution, 10 mmol/L HEPES, and 1 mmol/L sodium pyruvate. This cell suspension was dispensed in an amount of 40 µL per well into a plate containing the test compound, and cultured at 37°C in a 5% carbon dioxide gas incubator. Seven days later, 20 µL of CellTiter-Glo (registered trademark) (Promega) was added to each well and luminescence was measured.

[2] = tested on: human colorectal cancer strain GP2d; type: cell-based
Description: as §1, with “colorectal” for “gastric”, “GP2d (ECACC),” for “SNU-1 (ATCC),”, “500” for “250”, “a Dulbecco's modified Eagle” for “an RPMI-1640”, “medium” for “medium (Sigma)”, “(Sigma).” for “(Sigma), a 2.5 g/L D-(+)-glucose solution, 10 mmol/L HEPES, and 1 mmol/L sodium pyruvate.”

[3] = molecular target: GDP-bound KRAS wild-type protein (Homo sapiens, UniProt P01116); experiment: Binding to KRAS by surface plasmon resonance (SPR), dissociation constant KD; settings: 1:1 binding model
Outline: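 Read-out is KD from 1:1 fitting of single-cycle kinetics sensorgrams, blank-cycle and reference-surface corrected. Proteins were GDP-loaded, biotinylated Avi-fusions freshly captured each cycle at roughly 100–300 RU. Runs were at 30°C in HBS pH 7.4 with MgCl2, GDP and 4% DMSO.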

[4] = molecular target: GDP-bound NRAS wild-type protein (Homo sapiens, UniProt P01111); experiment: Binding to NRAS by surface plasmon resonance (SPR), KD and KD ratio to KRAS
Outline: (§2)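 Affinity is measured by surface plasmon resonance at 30°C against captured, GDP-loaded RAS carrying a biotinylated Avi tag. Compounds are titrated by single-cycle kinetics, and KD comes from a 1:1 fit.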

HRAS wild-type protein = HRAS wild-type protein (Homo sapiens, UniProt P01112); experiment: Binding to HRAS by surface plasmon resonance (SPR), KD and KD ratio to KRAS
Outline: as §2

[5] = tested on: human gastric cancer strain GSU; type: cell-based
Description: as §1, with “GSU (Institute of Physical and Chemical Research),” for “SNU-1 (ATCC),”, “200” for “250”, “(Sigma).” for “(Sigma), a 2.5 g/L D-(+)-glucose solution, 10 mmol/L HEPES, and 1 mmol/L sodium pyruvate.”

[6] = tested on: human bladder cancer strain UM-UC-3; type: cell-based
Description: as §1, with “human bladder” for “human gastric”, “strain UM-UC-3” for “strain SNU-1”, “an MEM” for “an RPMI-1640”, “medium (Nacalai Tesque)” for “medium (Sigma)”, “(Sigma), an MEM non-essential amino acids solution (100X),” for “(Sigma), a 2.5 g/L D-(+)-glucose solution, 10 mmol/L HEPES,”, “measured. […]” for “measured.”

[7] = tested on: human lung cancer strain NCI-H441; type: cell-based
Outline: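 Readout: […] after the ATP-based reagent. Compound: serial dilutions in dimethyl sulfoxide.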

[8] = tested on: human ovarian cancer strain OV7; type: cell-based
Description: (§3) A test compound was dispensed into a U-bottom 384-well plate as 40 nL serially diluted dimethyl sulfoxide solutions using a liquid handler Echo (LABCYTE). As for human ovarian cancer strain OV7 (ECACC), a cell suspension was prepared so as to have 250 cells/40 µL in a DMEM/Ham's F-12 medium (Nacalai Tesque) supplemented with 5% fetal bovine serum (Sigma), 0.5 µg/mL hydrocortisone, and 10 µg/mL insulin. This cell suspension was dispensed in an amount of 40 µL per well into a plate containing the test compound, and cultured at 37°C in a 5% carbon dioxide gas incubator. Seven days later, 20 µL of CellTiter-Glo (registered trademark) (Promega) was added to each well and luminescence was measured.

[9] = tested on: human pancreatic cancer strain KP4; type: cell-based
Description: as §3, with “human pancreatic” for “human ovarian”, “strain KP4 (Institute of Physical and Chemical Research),” for “strain OV7 (ECACC),”, “have 500” for “have 250”, “with 10%” for “with 5%”, “serum (Sigma).” for “serum (Sigma), 0.5 µg/mL hydrocortisone, and 10 µg/mL insulin.”

[10] = ratio of KD for GDP-bound NRAS wild-type protein to KD for KRAS
[11] = ratio of KD for HRAS wild-type protein to KD for KRAS

GDP-bound NRAS wild-type protein, sequence (P01111 whole entry): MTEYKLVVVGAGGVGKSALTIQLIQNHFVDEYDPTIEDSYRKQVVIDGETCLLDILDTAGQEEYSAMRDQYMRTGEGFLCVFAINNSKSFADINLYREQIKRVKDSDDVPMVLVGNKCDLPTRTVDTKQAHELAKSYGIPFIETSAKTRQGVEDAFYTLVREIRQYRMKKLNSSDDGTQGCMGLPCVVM
HRAS wild-type protein, sequence (P01112 whole entry): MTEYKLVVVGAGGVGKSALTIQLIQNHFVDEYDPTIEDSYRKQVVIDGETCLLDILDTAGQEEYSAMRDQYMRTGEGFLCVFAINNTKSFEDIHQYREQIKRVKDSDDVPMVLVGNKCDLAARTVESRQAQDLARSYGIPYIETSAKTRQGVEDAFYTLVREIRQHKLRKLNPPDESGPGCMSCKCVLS
GDP-bound KRAS wild-type protein, sequence (P01116 1-188 isoform P01116-2): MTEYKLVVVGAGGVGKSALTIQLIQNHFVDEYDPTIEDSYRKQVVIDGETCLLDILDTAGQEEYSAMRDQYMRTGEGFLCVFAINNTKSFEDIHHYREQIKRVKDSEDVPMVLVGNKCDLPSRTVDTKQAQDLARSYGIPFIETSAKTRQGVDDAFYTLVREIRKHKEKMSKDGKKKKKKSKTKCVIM

Row | Structure (SMILES) | IC50 [1] [nM] | IC50 [2] [nM] | Kd ([3]; Single Cycle Kinetics) [nM] | IC50 [5] [nM] | IC50 [6] [nM] | IC50 [7] [nM] | IC50 [8] [nM] | IC50 [9] [nM] | Kd [3] [nM] | NRAS /KRAS ([4]; ratio of the KD value with respect to GDP-bound NRAS wild-type protein to the KD value with respect to KRAS) | HRAS /KRAS (HRAS wild-type protein; ratio of the KD value with respect to HRAS wild-type protein to the KD value with respect to KRAS) | NRAS /KRAS [4, 10] | HRAS /KRAS (HRAS wild-type protein; [11])
1 | CCC[C@H]1C(=O)N[C@@H]([C@@H](C)CC)C(=O)N(C)CC(=O)N(C)[C@H]2C/C=C\CCN(C2=O)[C@@H](Cc2ccc(C(F)(F)F)cc2)C(=O)N(C)CC(=O)N[C@@H](CCc2ccc(Cl)c(Cl)c2)C(=O)N2C[C@H](OCC)C[C@H]2C(=O)NC2(CC(C)(C)C2)C(=O)N(C)[C@@H](C(CC)CC)C(=O)N(C)[C@H](C(=O)N(C)C)CC(=O)N1C [PP2175, (2S,8S,12R,14S,20S,23S,27S,30S,36S,38Z)-8-[2-(3,4-dichlorophenyl)ethyl]-12-ethoxy-20-(1-ethylpropyl)-N,N,3',3',4,19,22,26,32,35-decamethyl-30-[(1S)-1-methylpropyl]-3,6,9,15,18,21,25,28,31,34,42-undecaoxo-27-propyl-2-[[4-(trifluoromethyl)phenyl]methyl]spiro[1,4,7,10,16,19,22,26,29,32,35-undecazatricyclo[34.5.1.0^10,14]dotetracont-38-ene-17,1'-cyclobutane]-23-carboxamide] | 20 | 24.8 | 0.45 | 0.5 | 19.7 | 25.7 | 80.2 | 102 | – | AA (a compound having 20 or more is denoted as AA) | A (a compound having 10 or more and less than 20 is denoted as A) | – | –
2 | CCC(CC)[C@H]1C(=O)N(C)[C@H](C(=O)N(C)C)CC(=O)N(C)[C@@H](COC)C(=O)N[C@@H]([C@@H](C)CC)C(=O)N(C)CC(=O)N(C)[C@H]2C/C=C\CCN(C2=O)[C@@H](Cc2ccc(C)cc2)C(=O)N(C)CC(=O)N[C@@H](CCc2ccc(C(F)(F)F)c(Cl)c2)C(=O)N2CC3(CC3)C[C@H]2C(=O)NC2(CC(C)(C)C2)C(=O)N1C [PP2967] | 35.6 | 27.2 | – | 5.2 | 21.5 | 17 | 57.1 | 61.3 | 0.41 | – | – | AA (a compound having 20 or more is denoted as AA) | A (a compound having 10 or more and less than 20 is denoted as A)
3 | CCO[C@@H]1C[C@H]2C(=O)NC3(CC(C)(C)C3)C(=O)N(C)[C@@H](C3CCCC3)C(=O)N(C)[C@H](C(=O)N(C)C)CC(=O)N(C)[C@@H]([C@@H](C)OC)C(=O)N[C@@H]([C@@H](C)CC)C(=O)N(C)CC(=O)N(C)[C@H]3C/C=C\CCN(C3=O)[C@@H](Cc3ccc(C(F)(F)F)cc3)C(=O)N(C)CC(=O)N[C@@H](CCc3ccc(C(F)(F)F)c(OC)c3)C(=O)N2C1 [PP3194, (2S,8S,12R,14S,20S,23S,27S,30S,36S,38Z)-20-cyclopentyl-12-ethoxy-27-[(1R)-1-methoxyethyl]-8-[2-[3-methoxy-4-(trifluoromethyl)phenyl]ethyl]-N,N,3',3',4,19,22,26,32,35-decamethyl-30-[(1S)-1-methylpropyl]-3,6,9,15,18,21,25,28,31,34,42-undecaoxo-2-[[4-(trifluoromethyl)phenyl]methyl]spiro[1,4,7,10,16,19,22,26,29,32,35-undecazatricyclo[34.5.1.0^10,14]dotetracont-38-ene-17,1'-cyclobutane]-23-carboxamide] | 2.5 | 2.8 | – | 0.6 | 2.7 | 2.9 | 7.7 | 6.8 | 0.041 | – | – | A (a compound having 10 or more and less than 20 is denoted as A) | A (a compound having 10 or more and less than 20 is denoted as A)

Second part, led by results:

Row | IC50 [1] [nM] | IC50 [2] [nM] | Kd ([3]; Single Cycle Kinetics) [nM] | IC50 [5] [nM] | IC50 [6] [nM] | IC50 [7] [nM] | IC50 [8] [nM] | IC50 [9] [nM] | Kd [3] [nM] | Structure (SMILES) | NRAS /KRAS ([4]; ratio of the KD value with respect to GDP-bound NRAS wild-type protein to the KD value with respect to KRAS) | HRAS /KRAS (HRAS wild-type protein; ratio of the KD value with respect to HRAS wild-type protein to the KD value with respect to KRAS) | NRAS /KRAS [4, 10] | HRAS /KRAS (HRAS wild-type protein; [11])
4 | 26.7 | 12 | – | 3.2 | 15.4 | 14.9 | 20.4 | 28.7 | 0.26 | CCC[C@H]1C(=O)N[C@@H]([C@@H](C)CC)C(=O)N(C2CC2)CC(=O)N(C)[C@H]2C/C=C\CCN(C2=O)[C@@H](Cc2ccc(C(F)(F)F)cc2)C(=O)N(C)CC(=O)N[C@@H](CCc2cc(F)c(C(F)(F)F)c(F)c2)C(=O)N2C[C@H](OCC)C[C@H]2C(=O)NC2(CC(C)(C)C2)C(=O)N(C)[C@@H](CC(C)(C)C)C(=O)N(C)[C@H](C(=O)N(C)C)CC(=O)N1C [PP2742] | – | – | AA (a compound having 20 or more is denoted as AA) | A (a compound having 10 or more and less than 20 is denoted as A)
5 | 24.2 | 23.6 | – | 1.9 | 20.6 | 19 | 31.8 | 56 | 0.54 | CCO[C@@H]1C[C@H]2C(=O)NC3(CC(C)(C)C3)C(=O)N(C)[C@@H](CC(C)(C)C)C(=O)N(C)[C@H](C(=O)N(C)C)CC(=O)N(C)[C@@H](COC)C(=O)N[C@@H]([C@@H](C)CC)C(=O)N(C3CC3)CC(=O)N(C)[C@H]3C/C=C\CCN(C3=O)[C@@H](Cc3ccc(C(F)(F)F)cc3)C(=O)N(C)CC(=O)N[C@@H](CCc3ccc(Cl)c(Cl)c3)C(=O)N2C1 [PP2750, (2S,8S,12R,14S,20S,23S,27S,30S,36S,38Z)-32-cyclopropyl-8-[2-(3,4-dichlorophenyl)ethyl]-20-(2,2-dimethylpropyl)-12-ethoxy-27-(methoxymethyl)-N,N,3',3',4,19,22,26,35-nonamethyl-30-[(1S)-1-methylpropyl]-3,6,9,15,18,21,25,28,31,34,42-undecaoxo-2-[[4-(trifluoromethyl)phenyl]methyl]spiro[1,4,7,10,16,19,22,26,29,32,35-undecazatricyclo[34.5.1.0^10,14]dotetracont-38-ene-17,1'-cyclobutane]-23-carboxamide] | – | – | AA (a compound having 20 or more is denoted as AA) | A (a compound having 10 or more and less than 20 is denoted as A)
